Measurements from article PMC9693259, “Synthesis, Self-Assembly in Crystalline Phase and Anti-Tumor Activity of 2-(2-/4-Hydroxybenzylidene)thiazolo[3,2-a]pyrimidines” (Molecules, 2022).
Like-named read-outs stand apart in the source and are kept apart here.

How the values were obtained:
[1] = test system: M-HeLa clone 11 (epithelioid carcinoma of the cervix, subline HeLa, clone M-HeLa); experiment: MTT cytotoxicity test, M-HeLa; format: cell-based; conditions: mean ± SD, triplicate
Protocol: (§1) Formazan crystals were added to 100 µL of DMSO. […] The experiments for all compounds were repeated three times.

[2] = test system: MCF-7 (human mammary duct adenocarcinoma cell line); experiment: MTT cytotoxicity test, MCF-7; format: cell-based; conditions: triplicate
Protocol: as §1

[3] = test system: PC3 prostate adenocarcinoma cell line; experiment: MTT cytotoxicity test, PC3; format: cell-based; conditions: mean ± SD, triplicate
Protocol: as §1

[4] = test system: HuTu 80 human duodenal adenocarcinoma; experiment: MTT cytotoxicity test, HuTu 80; format: cell-based; conditions: triplicate
Protocol: as §1

[5] = test system: Chang liver (HeLa derivative) human liver cells; experiment: MTT cytotoxicity test, normal Chang liver cells; conditions: 48 h, read-out: IC50 Chang Liver (HeLa), normal cell line
Excerpt: (§2) For the experiments, tumor cell cultures of M-HeLa clone 11 (epithelioid carcinoma of the cervix, subline HeLa., clone M-HeLa), HuTu 80, human duodenal adenocarcinoma, MCF7—human breast adenocarcinoma (pleural fluid) collected from Institute of Cytology, Russian Academy of Sciences (St. Petersburg, Russia); PC3—prostate adenocarcinoma cell line collected from ATCC (American Type Cell Collection, Manassas, VA, USA; CRL 1435; human liver cells (Chang liver) and the Research Institute of Virology of the Russian Academy of Medical Sciences (Moscow, Russia) were used for cytotoxicity analysis.
(§3) The cytotoxic effect on cells was determined using the colorimetric method of cell proliferation—the MTT test. NADP-H-dependent cellular oxidoreductase enzymes can, under certain conditions, reflect the number of viable cells. These enzymes are able to reduce the tetrazolium dye (MTT)—3-(4,5-dimethylthiazol-2-yl)-2,5-diphenyl-tetrazolium bromide to insoluble blue-violet formazan, which crystallizes inside the cell. The amount of formazan formed is proportional to the number of cells with active metabolism. Cells were seeded on a 96-well Nunc plate at a concentration of 5 × 10^3 cells per well in a volume of 100 μL of medium and cultured in a CO2 incubator at 37 °C until a monolayer was formed. […] After 48 h of incubation of the cells with the tested compounds, the nutrient medium was removed from the plates and 100 µL of the nutrient medium without serum with MTT at a concentration of 0.5 mg/mL was added and incubated for 4 h at 37 °C. Formazan crystals were added to 100 µL of DMSO. Optical density was recorded at 540 nm on an Invitrologic microplate reader (Novosibirsk, Russia). The experiments for all compounds were repeated three times.
(§4) Statistical analysis was performed using the Mann–Whitney test (p < 0.05). Tabular and graphical data contain the averages and standard error.

[6] = test system: anti-apoptotic Bcl protein; set-up: method as in PMID 20405848; conditions: cited from earlier work
[7] = test system: Chk1, Chk2, H2AX, MDM2, p53, p21, ATR in M-HeLa cells; experiment: Multiplex analysis of DNA damage/genotoxicity markers (MILLIPLEX MAP 7-plex, Luminex); format: cell-based; conditions: IC50/2 and IC50, 24 h
Excerpt: Classical methods of assessing genotoxicity reveal mutations associated with increased or loss of function, but are not informative enough in studying the molecular mechanisms of DNA damage. The MILLIPLEX® MAP 7-plex DNA Damage/Genotoxicity Magnetic Bead kit allows to detect the expression and phosphorylation of a number of proteins involved in DNA damage, providing a faster and more accurate assessment of the state of the cell after exposure to genotoxic compounds. The 7-plex DNA Damage/Genotoxicity Magnetic Bead Kit is used to detect changes in phosphorylated Chk1 (Ser345), Chk2 (Thr68), H2AX (Ser139) and p53 (Ser15), as well as total protein levels of ATR, MDM2, and p21 in cellular lysates using the Luminex® system. […] The obtained results characterize the effect of the leading compound 7 on the DNA of M-HeLa cells at concentrations of IC50/2 and IC50. […] The fluorescence intensity of OTR markers also increases relative to the reference sample. […]
The studies were carried out according to the standard protocol. […] A total of 20 μg of total protein of each lysate diluted in MILLIPLEX® MAP Assay Buffer 2 was analyzed according to the analysis protocol (the lysate was incubated at 4 °C overnight). The mean fluorescence intensity (MFI) was detected using Luminex® system, MERCK, Kenilworth, NJ, USA.

[8] = MTT cytotoxicity test, normal Chang liver cells; conditions: human
Excerpt: as §2, §3, §4

[9] = test system: MCF-7 breast cancer cell line; set-up: method as in PMID 25096298; conditions: cited from earlier work
[10] = set-up: method as in doi:10.5935/0103-5053.20160038; conditions: due to optimal hydrophilicity/lipophilicity; cited from earlier work
[11] = Homo sapiens, M-HeLa, 48 h, read-out: IC50 M-HeLa
[12] = Homo sapiens, MCF7, 48 h, mean ± SD, read-out: IC50 MCF-7
[13] = Homo sapiens, HuTu80, 48 h, mean ± SD, read-out: IC50 HuTu 80
[14] = Homo sapiens, M-HeLa, lead compounds, read-out: IC50 M-HeLa (Table 2)
[15] = Homo sapiens, MCF7, mean ± SD, lead compounds, read-out: IC50 MCF-7 (Table 2)
[16] = lead compounds, read-out: IC50 PC3 (Table 2)
[17] = Homo sapiens, HuTu80, mean ± SD, lead compounds, read-out: IC50 HuTu 80 (Table 2)

| melting point | Compound | IC50 [1, 11] | IC50 [2, 12] | IC50 ([3]; 48 h, read-out: IC50 PC3) | IC50 [4, 13] | IC50 ([5]; Homo sapiens, HeLa) | IC50 [1, 14] | IC50 [2, 15] | IC50 [3, 16] | IC50 [4, 17] | IC50 at 48 h [8] | other results |
| --- | --- | --- | --- | --- | --- | --- | --- | --- | --- | --- | --- | --- |
| 207 to 209 °C | CCOC(=O)C1=C(C)N=c2s/c(=C\c3ccc(O)cc3)c(=O)n2C1c1ccc(Br)cc1 (stereo not drawn) [Compound 14, Ethyl (Z)-5-(4-bromophenyl)-2-(4-hydroxybenzylidene)-7-methyl-3-oxo-2,3-dihydro-5H-thiazolo[3,2-a]pyrimidine-6-carboxylate] | 31 ± 2.4 µM | 53.3 ± 4.2 µM | 49.3 ± 3.9 µM | 32.1 ± 2.5 µM | 53.2 ± 4.2 µM |  |  |  |  |  |  |
|  | COc1ccc(C2C3=C(N=c4s/c(=C\c5c[nH]c6ccc(Br)cc56)c(=O)n42)c2ccc(OC)cc2CC3)cc1 (stereo not drawn) [Compound 3] |  |  |  |  |  |  |  |  |  |  | IC50 [6]: 3.4 µM |
|  | CCOC(=O)C1=C(C)N=c2s/c(=C\c3ccc(O)cc3)c(=O)n2C1c1ccccc1 (stereo not drawn) [Compound 13, ethyl (Z)-2-(4-hydroxybenzylidene)-7-methyl-3-oxo-5-phenyl-2,3-dihydro-5H-thiazolo[3,2-a]pyrimidine-6-carboxylate] | 70 ± 5.5 µM | > 100 µM | 54 ± 4.3 µM | 43.3 ± 3.5 µM | 86.1 ± 6.8 µM |  |  |  |  |  |  |
|  | CCOC(=O)C1=C(C)N=c2s/c(=C\c3ccccc3O)c(=O)n2C1c1ccccc1 (stereo not drawn) [Compound 7, ethyl (Z)-2-(2-hydroxybenzylidene)-7-methyl-3-oxo-5-phenyl-2,3-dihydro-5H-thiazolo[3,2-a]pyrimidine-6-carboxylate] | 11.9 ± 0.9 µM | 43.7 ± 3.5 µM | 77.6 ± 6.7 µM | 10.2 ± 0.8 µM | 75 ± 5.7 µM | 11.9 ± 0.9 µM | 43.7 ± 3.5 µM | 77.6 ± 6.7 µM | 10 ± 0.8 µM | 75 ± 5.7 µM | average fluorescence intensity of the markers Chk1, Chk2, H2AX, MDM2, p53, and p21 ([7]; compared to untreated control): significantly increase; fluorescence intensity of OTR markers ([7]; relative to the reference sample): increases |
| 187 to 189 °C | CCOC(=O)C1=C(C)N=c2s/c(=C\c3ccccc3O)c(=O)n2C1c1cccc([N+](=O)[O-])c1 (stereo not drawn) [Compound 10, Ethyl (Z)-2-(2-hydroxybenzylidene)-7-methyl-5-(3-nitrophenyl)-3-oxo-2,3-dihydro-5H-thiazolo[3,2-a]pyrimidine-6-carboxylate] | 55 ± 4.4 µM | 56 ± 4.5 µM | 56 ± 4.4 µM | 60 ± 4.7 µM | 88 ± 7 µM | 55 ± 4.4 µM | 56 ± 4.5 µM | 56 ± 4.4 µM | 14.6 ± 0.3 µM | 88 ± 7 µM |  |
| 190 to 192 °C | CCOC(=O)C1=C(C)N=c2s/c(=C\c3ccc(O)cc3)c(=O)n2C1c1cccc([N+](=O)[O-])c1 (stereo not drawn) [Compound 15, Ethyl (Z)-2-(4-hydroxybenzylidene)-7-methyl-5-(3-nitrophenyl)-3-oxo-2,3-dihydro-5H-thiazolo[3,2-a]pyrimidine-6-carboxylate] | > 100 µM | > 100 µM | 70 ± 5.5 µM | 74.5 ± 5.7 µM | 91.4 ± 7.2 µM |  |  |  |  |  |  |
| 167 to 169 °C | COc1ccccc1C1C(C(=O)c2ccccc2)=C(C)N=c2s/c(=C\c3ccccc3O)c(=O)n21 (stereo not drawn) [Compound 11, (Z)-6-benzoyl-2-(2-hydroxybenzylidene)-5-(2-methoxyphenyl)-7-methyl-5H-thiazolo[3,2-a]pyrimidin-3(2H)-one] | 56.4 ± 4.5 µM | 81 ± 7.4 µM | 54 ± 4.3 µM | 39 ± 3.1 µM | 64 ± 5.1 µM |  |  |  |  |  |  |
|  | ethyl (Z)-2-(2-hydroxybenzylidene)-5-(4-methoxyphenyl)-7-methyl-3-oxo-2,3-dihydro-5H-thiazolo[3,2-a]pyrimidine-6-carboxylate [Compound 8] |  |  | 93.7 ± 8.5 µM |  |  |  |  |  |  |  | IC50 ([1]; 48 h, read-out: IC50 M-HeLa): 90 ± 8.3 µM; IC50 ([2]; 48 h, mean ± SD, read-out: IC50 MCF-7): 93.3 ± 8.2 µM; IC50 ([4]; 48 h, mean ± SD, read-out: IC50 HuTu 80): 85.9 ± 8 µM; IC50 ([5]; MTT, mean ± SD, triplicate): 56.4 ± 4.5 µM |
| 201 to 203 °C | CCOC(=O)C1=C(C)N=c2s/c(=C\c3ccccc3O)c(=O)n2C1c1ccc(Br)cc1 (stereo not drawn) [Compound 12, Ethyl (Z)-5-(4-bromophenyl)-2-(2-hydroxybenzylidene)-7-methyl-3-oxo-2,3-dihydro-5H-thiazolo[3,2-a]pyrimidine-6-carboxylate] | 18.8 ± 1.5 µM | 22.3 ± 1.4 µM | 28.1 ± 2.2 µM | 23.7 ± 1.8 µM | 78.2 ± 6.2 µM | 18.8 ± 1.5 µM | 52.7 ± 4.2 µM | 28.1 ± 2.2 µM | 23.7 ± 1.8 µM | 78.2 ± 6.2 µM |  |
|  | COc1ccc2c(c1)CCC1=C2N=c2s/c(=C\c3c[nH]c4ccc(Br)cc34)c(=O)n2C1c1ccc(Cl)cc1 (stereo not drawn) [Compound 1] |  |  |  |  |  |  |  |  |  |  | cytotoxicity efficiency relative to doxorubicin [9]: 1.15 times; absorption ability in the gastrointestinal tract [10]: high absorption ability |
|  | CNC(=O)c1cc(Oc2ccc(NC(=O)Nc3ccc(Cl)c(C(F)(F)F)c3)cc2)ccn1 [Sorafenib, reference compound] | 25 ± 1.8 µM | 27.5 ± 2.2 µM | 12.7 ± 1.1 µM | 13 ± 1.2 µM | 21.7 ± 1.7 µM | 25 ± 1.8 µM | 27.5 ± 2.2 µM | 27.5 ± 2.2 µM | 13 ± 1.2 µM | 21.7 ± 1.7 µM |  |
